Measured values from patent US4182895A, “1-Amino-lower-alkyl-3,4-diphenyl-1H-pyrazoles” (Sterling Drug Inc., priority 1978, dated 1980).

Assays:
[1] = Rosenthal, 1953; cited from earlier work
[2] = Buchi et al., 1955; cited from earlier work
tetrabenazine = assay: Anti-tetrabenazine (TB) test, anti-depressant activity: photocell activity counts after tetrabenazine; assay type: in vivo, Male Swiss-Webster mice; details: 4 h before tetrabenazine 50 mg./kg. i.p.
Protocol: The test procedure used to determine the anti-depressant activity of the compounds of the invention is described as follows: Male Swiss-Webster mice (Taconic Farms) weighing from 19-24 g. were divided into four groups of nine to ten mice per group. […] The fourth group received the vehicle only. Four hours following medication, all the control and the test animals were medicated with 50 mg./kg. (i.p.) of tetrabenazine and were placed in a photocell activity cage [described by Harris et al., Psychon. Sci., 4, 267 (1966)] equipped with a digital counter to record the number of times that a light beam impinging on a photocell is interrupted during the test period. Beginning thirty minutes after tetrabenazine medication, the photocell units were activated and the photocell counts recorded over a fifty minute period.

[3] = tested on: acetylcholine-induced abdominal constriction; assay: Acetylcholine-induced abdominal constriction test (Ach), analgesic activity; assay type: in vivo, mice; details: for ED50: Mus musculus
From the text: (§1) The test procedures used to determine the analgesic activities of the compounds of the invention have been described in detail in the prior art and are as follows: The acetylcholine-induced abdominal constriction test, which is a primary analgesic screening test to measure the ability of a test agent to suppress acetylcholine-induced abdominal constriction in mice described by Collier et al., Brit. J. Pharmacol. Chemotherap. 32, 295 (1968) and the phenyl p-quinone-induced writhing test, also a primary analgesic screening test, designed to measure the ability of a test agent to prevent phenyl p-quinone-induced writhing in mice, described by Pearl and Harris, J. Pharmacol. Exptl. Therap. 154, 319-323 (1966).

[4] = tested on: phenyl p-quinone-induced writhing; assay: Phenyl p-quinone-induced writhing test (PPQ), analgesic activity; assay type: in vivo, mice; details: Mus musculus, po
From the text: as §1

[5] = Tested at 4, 16 and 64 mg./kg. (p.o.), activity = significant difference, 0.05 level or less

NCCn1nc(-c2ccccc2)cc1-c1ccccc1 [1-(2-aminoethyl)-3,5-diphenyl-1H-pyrazole]
local anesthetic activity [1]: having local anesthetic activity

Cc1cn(CCN(C)C)nc1-c1ccccc1 [1-(2-dimethylaminoethyl)-3-phenyl-4-methyl-1H-pyrazole]
analgesic activity [2]: analgesic activity is asserted

Cl.Cl.NCCCn1cc(-c2ccccc2)c(-c2ccccc2)n1 [Example 1A, 1-(3-aminopropyl)-3,4-diphenyl-1H-pyrazole dihydrochloride]
TB (anti-tetrabenazine activity) (tetrabenazine; [5]): Inac.
ED50 ([3]; sc): 11 mg/kg

CNCCCn1cc(-c2ccccc2)c(-c2ccccc2)n1.Cl [Example 1B, 1-[3-(N-methylamino)propyl]-3,4-diphenyl-1H-pyrazole hydrochloride]
TB (anti-tetrabenazine activity) (tetrabenazine; at 4 mg./kg.): Inac.
TB (anti-tetrabenazine activity) (tetrabenazine; at 16 and 64 mg./kg.): Act.

CN(C)CCCn1cc(-c2ccccc2)c(-c2ccccc2)n1.Cl.Cl [Example 2, 1-[3-(N,N-dimethylamino)propyl]-3,4-diphenyl-1H-pyrazole dihydrochloride]
TB (anti-tetrabenazine activity) (tetrabenazine; at 2 mg./kg.): Inac.
TB (anti-tetrabenazine activity) (tetrabenazine; at 4, 8 and 16 mg./kg.): Act.

CCN(CC)CCn1cc(-c2ccccc2)c(-c2ccccc2)n1.Cl [Example 3, 1-[2-(N,N-diethylamino)ethyl]-3,4-diphenyl-1H-pyrazole hydrochloride]
TB (anti-tetrabenazine activity) (tetrabenazine; [5]): Inac.
ED50 [4]: 90 mg/kg
Ach % effect ([3]; 10 mg./kg. s.c.): 53%
Ach % effect ([3]; 50 mg./kg. s.c.): 67%
Ach % effect ([3]; 100 mg./kg. s.c.): 60%
ED50 ([3]; po): 29 mg/kg

CCN(CC)CCCn1cc(-c2ccccc2)c(-c2ccccc2)n1.Cl [Example 4, 1-[3-(N,N-diethylamino)propyl]-3,4-diphenyl-1H-pyrazole hydrochloride]
TB (anti-tetrabenazine activity) (tetrabenazine; [5]): Inac.
ED50 ([3]; sc): 2.2 mg/kg
